Data reported in US11584714B2 (priority 2018, dated 2023).
Structures can show the parent of a compound that is named as a salt. Where two headings read alike, the source gives them in different places.

How the values were obtained:
MASP-2 (CCP1-CCP2-SP) = MASP-2 (CCP1-CCP2-SP) (Homo sapiens (Human), UniProt O00187); assay: biochemical; type: biochemical
human α-thrombin = human α-thrombin (Homo sapiens (Human), UniProt P00734); assay: Enzymatic assay for thrombin (Boc-VPR-AMC substrate); type: biochemical; settings: read-out: Thrombin Ki
[1] = MASP-2 inhibition versus thrombin
[2] = selectivity for MASP-2 inhibition versus thrombin

Sequence of MASP-2 (CCP1-CCP2-SP) (O00187 445-686): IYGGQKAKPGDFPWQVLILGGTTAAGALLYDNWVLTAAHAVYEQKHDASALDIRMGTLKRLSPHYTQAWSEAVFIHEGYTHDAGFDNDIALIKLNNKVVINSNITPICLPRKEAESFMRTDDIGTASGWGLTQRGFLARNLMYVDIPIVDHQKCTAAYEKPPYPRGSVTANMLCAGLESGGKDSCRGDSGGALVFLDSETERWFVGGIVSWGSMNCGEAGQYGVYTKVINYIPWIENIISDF

| Ki (human α-thrombin) [nM] | Structure (SMILES) | also measured |
| --- | --- | --- |
| – | C[C@H](NC(=O)[C@H](N)CCc1ccccc1)C(=O)NCc1ccc(C(=N)N)cc1 [compound 1024] | MASP-2 vs. thrombin selectivity (MASP-2 (CCP1-CCP2-SP); [1]): ** (5.0 to 25-fold) |
| – | C[C@H](NC(=O)[C@H](N)CCc1cc(Cl)cc(Cl)c1)C(=O)NCc1ccc(C(=N)N)cc1 [compound 1118] | MASP-2 vs. thrombin selectivity (MASP-2 (CCP1-CCP2-SP); [1]): ** (5.0 to 25-fold) |
| < 500 | CC(C)(C)OC(=O)N[C@@H](C(=O)N1CCC[C@H]1C(=O)NCc1ccc(C(=N)N)cc1)C1CCCCC1 [compound 1138] | – |
| – | COc1cc(C[C@@H]2CN[C@@H](C(=O)N[C@@H](C)C(=O)NCc3cc(Cl)ccc3-n3cnnn3)C2)cc(OC)c1 [compound 1419, (2R,4S)—N—((S)-1-((5-Chloro-2-(JH-tetrazol-1-yl)benzyl)amino)-1-oxopropan-2-yl)-4-(3,5-dimethoxybenzyl)pyrrolidine-2-carboxamide Trifluoroacetate salt] | MASP-2 vs. thrombin selectivity (MASP-2 (CCP1-CCP2-SP); [2]): * (≥1.0 to <5.0-fold) |
| – | C[C@H](NC(=O)[C@H]1C=C(c2ccccc2)CN1)C(=O)NCc1ccc(C(=N)N)cc1 [compound 1032] | Ki (MASP-2 (CCP1-CCP2-SP); read-out: MASP-2 Ki): < 500 nM |
| < 500 | C[C@H](NC(=O)[C@H](N)CCc1ccc(F)cc1)C(=O)NCc1ccc(C(=N)N)cc1 [compound 1047] | – |
| – | CCCCCn1c(=O)c2ccccc2n(CC(=O)Nc2ccc(NC(C)=O)cc2)c1=O [compound 2019] | Ki (human α-thrombin; Zn/EDTA condition not given): > 25000 nM |
| > 25000 | CCOC(=O)NC(=N)c1ccc(CNC(=O)[C@H](C)NC(=O)[C@H]2C[C@H](c3ccccc3)CN2)cc1 [compound 1294, Ethyl (imino(4-(((S)-2-((2R,4R)-4-phenylpyrrolidine-2-carboxamido)propanamido)methyl)phenyl)methyl)carbamate] | – |
| < 500 | CC(C)N(CC(=O)NCc1ccc(C(=N)N)cc1)C(=O)[C@H](NCC(=O)O)C1CCCCC1 [compound 1117] | – |
| – | N=C(N)c1ccc(CNC(=O)Cn2c(=O)n(Cc3ccccc3)c(=O)c3ccc(C(=O)NC4CCCCC4)cc32)cc1 [compound 2021, 3-Benzyl-1-(2-((4-carbamimidoylbenzyl)amino)-2-oxoethyl)-N-cyclohexyl-2,4-dioxo-1,2,3,4-tetrahydroquinazoline-7-carboxamide] | Ki (human α-thrombin; Zn/EDTA condition not given): > 25000 nM |
| < 500 | N=C(N)c1ccc(CNC(=O)[C@@H]2CCN2C(=O)[C@H](N)C2CC2)cc1 [compound 1002, (S)-1-((R)-2-Amino-2-cyclopropylacetyl)-N-(4-carbamimidoylbenzyl)azetidine-2-carboxamide] | – |
| – | CCCCn1c(=O)c2ccccc2n(CC(=O)Nc2ccc(NC(C)=O)cc2)c1=O [compound 2020] | Ki (human α-thrombin; Zn/EDTA condition not given): > 25000 nM |
| – | C[C@H](NC(=O)[C@H](N)CCc1ccccc1)C(=O)NCc1cc(Cl)ccc1C#N [compound 1313, Trifluoroacetate salt] | MASP-2 vs. thrombin selectivity (MASP-2 (CCP1-CCP2-SP); [2]): * (≥1.0 to <5.0-fold) |
| – | C[C@H](NC(=O)[C@@H](CCc1ccccc1)NCc1ccc(C(=O)N2CCOCC2)cc1)C(=O)NCc1ccc(C(=N)N)cc1 [compound 1153] | MASP-2 vs. thrombin selectivity (MASP-2 (CCP1-CCP2-SP); [1]): **** (>100-fold) |
| – | N[C@H](CCc1ccccc1)C(=O)N1CCC[C@H]1C(=O)NCc1cc(Cl)ccc1O [compound 1079, (S)-1-((R)-2-Amino-4-phenylbutanoyl)-N-(5-chloro-2-hydroxybenzyl)pyrrolidine-2-carboxamide] | Ki (MASP-2 (CCP1-CCP2-SP); read-out: MASP-2 Ki): < 500 nM |
| > 25000 | C[C@H](NC(=O)[C@H](N)CCc1ccccc1)C(=O)NCCCCNC(=N)N [compound 1010] | – |
| – | Cc1ccc(-c2c[nH]c(C(=O)N[C@@H](C)C(=O)NCc3ccc(C(=N)N)cc3)c2)cc1F [compound 1235, (S)—N-(1-((4-Carbamimidoylbenzyl)amino)-1-oxopropan-2-yl)-4-(3-fluoro-4-methylphenyl)-1H-pyrrole-2-carboxamide] | Ki (MASP-2 (CCP1-CCP2-SP); read-out: MASP-2 Ki): < 500 nM; MASP-2 vs. thrombin selectivity (MASP-2 (CCP1-CCP2-SP); [2]): *** (≥25 to <100-fold) |
| > 25000 | C[C@H](NC(=O)[C@H](N)CCc1ccccc1)C(=O)NCc1ccc(CN)cc1 [compound 1014] | – |
| – | C[C@H](NC(=O)[C@@H](CCc1ccccc1)NCc1ccc(N2CCNCC2)cc1)C(=O)NCc1ccc(C(=N)N)cc1 [compound 1148, (R)—N—((S)-1-((4-Carbamimidoylbenzyl)amino)-1-oxopropan-2-yl)-4-phenyl-2-((4-(piperazin-1-yl)benzyl)amino)butanamide] | Ki (MASP-2 (CCP1-CCP2-SP); read-out: MASP-2 Ki): < 500 nM |
| < 500 | N=C(N)c1ccc(CNC(=O)[C@@H]2CCN2C(=O)[C@H](NCC(=O)O)C2CC2)cc1 [compound 1028, ((R)-2-((S)-2-((4-carbamimidoylbenzyl)carbamoyl)azetidin-1-yl)-1-cyclopropyl-2-oxoethyl)glycine] | – |

| Ki (human α-thrombin) [nM] | Structure (SMILES) | also measured |
| --- | --- | --- |
| – | C[C@H](NC(=O)[C@H](N)CCc1ccc(C(F)(F)F)cc1)C(=O)NCc1ccc(C(=N)N)cc1 [compound 1119, (R)-2-Amino-N—((S)-1-((4-carbamimidoylbenzyl)amino)-1-oxopropan-2-yl)-4-(4-(trifluoromethyl)phenyl)butanamide Dihydrochloride] | Ki (MASP-2 (CCP1-CCP2-SP); read-out: MASP-2 Ki): < 500 nM |
| > 25000 | Cc1cc(N)nc(C)c1CNC(=O)[C@H](C)NC(=O)[C@H](N)CCc1ccccc1 [compound 1213] | – |
| – | N=C(N)c1ccc2[nH]c(-c3nc4ccccc4[nH]3)nc2c1 [compound 2009, 1H,1′H-[2,2′-bibenzo[d]imidazole-5-carboximidamidedihydrochloride] | Ki (MASP-2 (CCP1-CCP2-SP)): > 25000 nM; Ki (MASP-2 (CCP1-CCP2-SP); +Zn, read-out: MASP-2 Ki): < 500 nM |
| < 500 | N=C(N)c1ccc(CNC(=O)[C@@H]2CCN2C(=O)[C@H]2CC3CCCCC3N2)cc1 (stereo partly drawn) [compound 1026] | – |
| < 500 | CN(CC(=O)NCc1ccc(C(=N)N)cc1)C(=O)[C@H](NCC(=O)O)C1CCCCC1 [compound 1096] | – |
| – | C[C@H](NC(=O)[C@H](N)CCc1cccc(Cl)c1)C(=O)NCc1ccc(C(=N)N)cc1 [compound 1081] | MASP-2 vs. thrombin selectivity (MASP-2 (CCP1-CCP2-SP); [1]): ** (5.0 to 25-fold) |
| – | C[C@H](NC(=O)[C@H](N)CCc1ccccc1)C(=O)NCc1cccc(Cl)c1 [compound 1021] | Ki (MASP-2 (CCP1-CCP2-SP); read-out: MASP-2 Ki): < 10000 nM |
| > 25000 | C[C@H](NC(=O)[C@H](N)CCc1ccccc1)C(=O)NCc1cc(Cl)ccc1Cl [compound 1192] | – |
| > 25000 | C[C@H](NC(=O)[C@H]1C[C@H](c2ccccc2)CN1)C(=O)NCc1ccc(C(=N)NO)cc1 [compound 1070] | – |
| – | CNC(=O)c1ccc2c(=O)n(Cc3ccccc3)c(=O)n(CC(=O)NCc3ccc(C(=N)N)cc3)c2c1 [compound 2018, 3-Benzyl-1-(2-((4-carbamimidoylbenzyl)amino)-2-oxoethyl)-N-methyl-2,4-dioxo-1,2,3,4-tetrahydroquinazoline-7-carboxamide] | Ki (human α-thrombin; Zn/EDTA condition not given): > 25000 nM |
| – | C[C@H](NC(=O)[C@H]1Cc2c([nH]c3ccccc23)CN1)C(=O)NCc1ccc(C(=N)N)cc1 [compound 1097] | MASP-2 vs. thrombin selectivity (MASP-2 (CCP1-CCP2-SP); [1]): *** (25 to 100-fold) |
| – | N=C(N)c1ccc(CNC(=O)Cn2c(=O)n(Cc3ccccc3)c(=O)c3ccc(C(N)=O)cc32)cc1 [compound 2017, ((4-((2-(3-Benzyl-7-carbamoyl-2,4-dioxo-3,4-dihydroquinazolin-1(2H)-yl)acetamido)methyl)phenyl)(imino)methyl)-λ^5-azaneyl Acetate] | Ki (human α-thrombin; Zn/EDTA condition not given): > 25000 nM |
| < 500 | N=C(N)c1ccc(CNC(=O)[C@H]2CCCCN2C(=O)[C@H](NCC(=O)O)C2CCCCC2)cc1 [compound 1154] | – |
| – | N=C(N)c1ccc(CNC(=O)C(CF)NC(=O)[C@H](N)CCc2ccccc2)cc1 (stereo partly drawn) [compound 1050, (2R)-2-Amino-N-(1-((4-carbamimidoylbenzyl)amino)-3-fluoro-1-oxopropan-2-yl)-4-phenylbutanamide Dihydrochloride] | Ki (MASP-2 (CCP1-CCP2-SP); read-out: MASP-2 Ki): < 500 nM |
| < 500 | N=C(N)c1ccc(CNC(=O)[C@@H]2CCN2C(=O)[C@H](NCC(N)=O)C2CCCCC2)cc1 [compound 1102, (S)-1-((R)-2-((2-amino-2-oxoethyl)amino)-2-cyclohexylacetyl)-N-(4-carbamimidoylbenzyl)azetidine-2-carboxamide] | – |
| < 500 | N=C(N)c1ccc(CNC(=O)[C@@H]2CCN2C(=O)[C@H](N)CC2CCCCC2)cc1 [compound 1158] | – |
| < 500 | N=C(N)c1ccc(CNC(=O)[C@@H]2CCN2C(=O)[C@H](NCC(=O)O)c2ccccc2)cc1 [compound 1100] | – |
| < 500 | CC(=O)N[C@@H](C(=O)N1CC[C@H]1C(=O)NCc1ccc(C(=N)N)cc1)C1CCCCC1 [compound 1077] | – |
| < 500 | CC(C)(C)[C@@H](N)C(=O)N1CC[C@H]1C(=O)NCc1ccc(C(=N)N)cc1 [compound 1005] | – |
| < 500 | CC[C@H](NC(=O)[C@H](NCC(=O)O)C1CCCCC1)C(=O)NCc1ccc(C(=N)N)cc1 [compound 1106] | – |

| Structure (SMILES) | Ki (human α-thrombin) [nM] | also measured |
| --- | --- | --- |
| COC(=O)COc1ccc(CN[C@H](CCc2ccccc2)C(=O)N[C@@H](C)C(=O)NCc2ccc(C(=N)N)cc2)cc1 [compound 1151] | < 500 | MASP-2 vs. thrombin selectivity (MASP-2 (CCP1-CCP2-SP); [1]): −− (less than 1.0-fold); Ki (MASP-2 (CCP1-CCP2-SP); read-out: MASP-2 Ki): < 500 nM |
| C[C@H](NC(=O)[C@H](N)CCc1ccccc1)C(=O)NCc1ccc(C(=N)NO)cc1 [compound 1157, (R)-2-Amino-N—((S)-1-((4-(N-hydroxycarbamimidoyl)benzyl)amino)-1-oxopropan-2-yl)-4-phenylbutanamide Dihydrochloride] | > 25000 | – |
| C[C@H](NC(=O)[C@H]1C[C@@H](c2ccccc2)CN1)C(=O)NCc1ccc(N)nc1 [compound 1255, (2R,4S)—N—((S)-1-(((6-Aminopyridin-3-yl)methyl)amino)-1-oxopropan-2-yl)-4-phenylpyrrolidine-2-carboxamide] | > 25000 | – |
| N=C(N)NCCCNC(=O)[C@@H]1CCN1C(=O)[C@H](N)C1CCCCC1 [compound 1004, (S)-1-((R)-2-Amino-2-cyclohexylacetyl)-N-(3-guanidinopropyl)azetidine-2-carboxamide Hydrochloride] | < 500 | – |
| C[C@H](NC(=O)[C@H]1C[C@H](c2ccccc2)CN1)C(=O)NCc1ccc(N)nc1 [compound 1012] | > 25000 | – |
| N=C(N)c1ccc(CNC(=O)[C@@H]2CCN2C(=O)[C@H]2CCCN2)cc1 [compound 1003] | < 500 | – |
| Cc1nc(N)ccc1CNC(=O)[C@H](C)NC(=O)[C@H]1C[C@@H](c2cccc(CN)c2)CN1 [compound 1291, (2R,4S)—N—((S)-1-(((6-Amino-2-methylpyridin-3-yl)methyl)amino)-1-oxopropan-2-yl)-4-(3-(aminomethyl)phenyl)pyrrolidine-2-carboxamide] | > 25000 | – |
